Data published in PubChem BioAssay AID328 (DTP/NCI, 2004).
“And” between values parts separate entries of the source, which are not always exact repeats. Equal entries are not always repeated. Toxic doses and inconclusive results are not listed. Rule for the calls: active = survival T/C of 150% or more; inactive = T/C below 125% in these data.

Test system: BDF1 mice, P388 leukemia ip, median survival T/C
Experiment: NCI In Vivo Anticancer Drug Screen. Data for tumor model P388 Leukemia (intraperitoneal) in B6D2F1 (BDF1) mice
Settings: endpoint: median survival time, higher = longer survival
Outline: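 Transplantable tumour in mice; compound vs vehicle dosing; survival scored; ratio of treated to control reported.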

[1] = dose: 100.0 mg/kg/injection, schedule: Q04DX003 (ip), vehicle: saline
[2] = dose: 200.0 mg/kg/injection, schedule: Q04DX003 (ip), vehicle: saline
[3] = dose: 400.0 mg/kg/injection, schedule: Q04DX003 (ip), vehicle: saline

Measured: T/C

NC(N)=Nc1ccc(C(=O)Nc2ccc([N+](=O)[O-])cc2)cc1
inactive: dose: 50.0 mg/kg/injection, schedule: Q01DX009 (ip), vehicle: saline 101 % of control | dose: 100.0 mg/kg/injection, schedule: Q01DX009 (ip), vehicle: saline 103 % of control | [1] 97 % of control | dose: 200.0 mg/kg/injection, schedule: Q01DX009 (ip), vehicle: saline 91 % of control | [2] 91 % of control | [3] 100 % of control

O=S(=O)(Cl)CCCBr
inactive: dose: 50.0 mg/kg/injection, schedule: Q01DX001 (ip), vehicle: saline sonified 100 % of control | dose: 100.0 mg/kg/injection, schedule: Q01DX001 (ip), vehicle: saline sonified 100 % of control | dose: 200.0 mg/kg/injection, schedule: Q01DX001 (ip), vehicle: saline sonified 100 % of control

Cc1c(C)c2ccc(N)cc2[nH]c1=O
inactive: dose: 2.0 mg/kg/injection, schedule: Q01DX009 (ip), vehicle: saline 118 % of control | dose: 4.0 mg/kg/injection, schedule: Q01DX009 (ip), vehicle: saline 105 % of control | dose: 8.0 mg/kg/injection, schedule: Q01DX009 (ip), vehicle: saline 99 % of control | dose: 16.0 mg/kg/injection, schedule: Q01DX009 (ip), vehicle: saline 118 % of control | dose: 25.0 mg/kg/injection, schedule: Q04DX003 (ip), vehicle: saline 98 % of control | dose: 50.0 mg/kg/injection, schedule: Q04DX003 (ip), vehicle: saline 106 % of control | [1] 106 % of control | [2] 104 % of control | [3] 107 % of control

CCCN=C(N)c1ccc(NC(=O)c2ccc(C(=O)Nc3ccc(C(N)=NCCC)cc3)cc2)cc1
active: dose: 14.0 mg/kg/injection, schedule: Q04DX003 (ip), vehicle: saline with Tween-80 163 % of control | dose: 21.0 mg/kg/injection, schedule: Q04DX003 (ip), vehicle: saline with Tween-80 163 % of control | dose: 33.0 mg/kg/injection, schedule: Q04DX003 (ip), vehicle: saline with Tween-80 159 % of control and 200 % of control | dose: 50.0 mg/kg/injection, schedule: Q04DX003 (ip), vehicle: saline with Tween-80 172 % of control and 204 % of control | dose: 75.0 mg/kg/injection, schedule: Q04DX003 (ip), vehicle: saline with Tween-80 159 % of control | dose: 100.0 mg/kg/injection, schedule: Q04DX003 (ip), vehicle: saline with Tween-80 190 % of control
inactive: dose: 0.5 mg/kg/injection, schedule: Q04DX003 (ip), vehicle: saline with Tween-80 115 % of control | dose: 1.0 mg/kg/injection, schedule: Q04DX003 (ip), vehicle: saline with Tween-80 120 % of control | dose: 200.0 mg/kg/injection, schedule: Q04DX003 (ip), vehicle: saline with Tween-80 118 % of control

C1=Cc2c3c(c4c(c2C1)C=CC4)C=CC3
inactive: dose: 50.0 mg/kg/injection, schedule: Q01DX009 (ip), vehicle: saline with Tween-80 91 % of control | dose: 100.0 mg/kg/injection, schedule: Q01DX009 (ip), vehicle: saline with Tween-80 93 % of control | dose: 200.0 mg/kg/injection, schedule: Q01DX009 (ip), vehicle: saline with Tween-80 95 % of control

Cc1ccc(S(=O)(=O)OCCC2CCCCC2COS(=O)(=O)c2ccc(C)cc2)cc1 (stereo not drawn)
inactive: dose: 100.0 mg/kg/injection, schedule: Q01DX009 (ip), vehicle: Klucel (hydroxypropylcellulose) (HPC) 105 % of control | dose: 200.0 mg/kg/injection, schedule: Q01DX009 (ip), vehicle: Klucel (hydroxypropylcellulose) (HPC) 100 % of control | dose: 400.0 mg/kg/injection, schedule: Q01DX009 (ip), vehicle: Klucel (hydroxypropylcellulose) (HPC) 110 % of control
